# Calls of active or inactive are those of the source. The rule behind the calls is not given here.
# Assays:
# Cryptosporidium parvum [1] = assay: Anti-cryptosporidial activity against Cryptosporidium parvum infected in HCT-8 cells pre-infected for 3 hrs followed by compound treatment and measured after 45 hrs by fluorescence microscopy analysis; format: functional, organism-based
# Cryptosporidium parvum [2] = assay: Anti-cryptosporidial activity against Cryptosporidium parvum infected in HCT-8 cells assessed as rate of parasite elimination at above EC90 concentration pre-infected for 24 hrs followed by compound treatment; format: functional, organism-based
# hERG (KCNH2) [3] = target: T1, hERG (KCNH2) (Homo sapiens, UniProt Q12809); assay: Displacement of [3H]-dofetilide from human ERG at 10 uM relative to control; conditions: probe [3H]-dofetilide
# MDR1 (P-gp) = assay: (§1) Efflux ratio of apparent permeability across basolateral to apical side over apical to basolateral side in […] cells at 10 uM after 2 hrs; format: ADME, cell-based; conditions: MDCK-MDR1
# [4] = Kinetic aqueous solubility of the compound in pH 7.4; format: physicochemical; conditions: buffer, read-out: Kinetic_solubility
# [5] = Metabolic stability in human liver microsomes assessed as half life at 2 uM measured up to 30 mins in presence of NADPH by LC-MS/MS analysis; format: ADME, Microsome; conditions: for t1/2: microsomes, 0.5 h, 2 µM
# [6] = as §1; format: ADME, cell-based; conditions: mdckii-mdr1, 2 h, 10 µM
# [7] = AUC in CD1 mouse plasma at 10 mg/kg, po measured upto 24 hrs by LC-MS/MS anlaysis; format: ADME, organism-based; set-up: route oral, dose 10 mg/kg, time <=24; conditions: in vivo
# [8] = Cmax in CD1 mouse jejunum at 1 mg/kg, iv measured upto 6 hrs by LC-MS/MS anlaysis; format: ADME, organism-based; set-up: route intravenous, dose 1 mg/kg, time <=6; conditions: in vivo
# [9] = Cmax in CD1 mouse plasma at 10 mg/kg, po measured upto 24 hrs by LC-MS/MS anlaysis; format: ADME, organism-based; set-up: route oral, dose 10 mg/kg, time <=24; conditions: in vivo
# [10] = target: Voltage-gated inwardly rectifying potassium channel KCNH2 (Homo sapiens, UniProt Q12809); assay: Antagonist activity at human ERG
# HCT-8 = assay: Cytotoxicity against human HCT8 cells assessed as reduction in cell viability after 48 hrs by CellTiter aqueous assay; format: cell-based; conditions: hct-8, 48 h
# [11] = Cmax in CD1 mouse jejunum at 10 mg/kg, po measured upto 24 hrs by LC-MS/MS anlaysis; format: ADME, organism-based; set-up: route oral, dose 10 mg/kg, time <=24; conditions: in vivo
# [12] = Half life in CD1 mouse jejunum at 1 mg/kg, iv measured upto 6 hrs by LC-MS/MS anlaysis; format: ADME, organism-based; conditions: in vivo
# hERG (KCNH2) [13] = target: T1, hERG (KCNH2); assay: Antagonist activity at human ERG relative to control
# [14] = AUC in CD1 mouse jejunum at 10 mg/kg, po measured upto 24 hrs by LC-MS/MS anlaysis; format: ADME, organism-based; set-up: route oral, dose 10 mg/kg, time <=24; conditions: in vivo
# CYP2C19 = CYP2C19 (Homo sapiens, UniProt P33261); assay: Inhibition of CYP2C19 (unknown origin) at 10 uM relative to control; format: ADME
# Cryptosporidium parvum [15] = assay: Anti-cryptosporidial activity against Cryptosporidium parvum infected in NSG mouse assessed as reduction in parasite infection at 50 mg/kg, po administered twice daily for 11 days by qPCR analysis; format: functional; set-up: scale not given: the % may be the effect or the level left; conditions: time 11 day
# [16] = AUC in CD1 mouse jejunum at 1 mg/kg, iv measured upto 6 hrs by LC-MS/MS anlaysis; format: ADME, organism-based; set-up: route intravenous, dose 1 mg/kg, time <=6; conditions: in vivo
# hERG (KCNH2) [17] = target: T1, hERG (KCNH2); assay: Inhibition of human ERG expressed in CHO cells at 10 uM by automated patch clamp electrophysiology assay relative to control; format: cell-based; conditions: CHO cells that express hERG
# [18] = Volume of distribution in CD1 mouse jejunum at 1 mg/kg, iv measured upto 6 hrs by LC-MS/MS anlaysis; format: ADME, organism-based; conditions: in vivo
# [19] = Cmax in CD1 mouse plasma at 1 mg/kg, iv measured upto 6 hrs by LC-MS/MS anlaysis; format: ADME, organism-based; set-up: route intravenous, dose 1 mg/kg, time <=6; conditions: in vivo
# hERG (KCNH2) [20] = target: T1, hERG (KCNH2); assay: Inhibition of human ERG expressed in CHO cells at 100 uM by automated patch clamp electrophysiology assay relative to control; format: cell-based; conditions: CHO cells that express hERG
# [21] = Protein binding in mouse plasma at 10 uM after 6 hrs by LC-MS/MS based equilibrium dialysis method; format: ADME, cell-free
# hERG (KCNH2) [22] = target: T1, hERG (KCNH2); assay: Inhibition of human ERG expressed in CHO cells at 1 uM by automated patch clamp electrophysiology assay relative to control; format: cell-based; conditions: CHO cells that express hERG
# [23] = Half life in CD1 mouse plasma at 1 mg/kg, iv measured upto 6 hrs by LC-MS/MS anlaysis; format: ADME, organism-based; conditions: in vivo
# [24] = AUC in CD1 mouse plasma at 1 mg/kg, iv measured upto 6 hrs by LC-MS/MS anlaysis; format: ADME, organism-based; set-up: route intravenous, dose 1 mg/kg, time <=6; conditions: in vivo
# [25] = Protein binding in human plasma at 10 uM after 6 hrs by LC-MS/MS based equilibrium dialysis method; format: ADME, cell-free
# Cryptosporidium parvum [26] = assay: Anti-cryptosporidial activity against Cryptosporidium parvum infected in NSG mouse assessed as reduction in parasite infection at 50 mg/kg, po administered twice daily for 21 days by qPCR analysis; format: functional, organism-based; conditions: time 21.0 day
# [27] = Metabolic stability in mouse liver microsomes assessed as half life at 2 uM measured up to 30 mins in presence of NADPH by LC-MS/MS analysis; format: ADME, Microsome; conditions: 0.5 h
# CYP2C9 = CYP2C9 (Homo sapiens, UniProt P11712); assay: Inhibition of CYP2C9 (unknown origin) at 10 uM relative to control; format: ADME
# Cryptosporidium parvum [28] = assay: Anti-cryptosporidial activity against Cryptosporidium parvum infected in HCT-8 cells assessed as rate of parasite elimination at 6 times of EC90 concentration pre-infected for 24 hrs followed by compound treatment; format: functional, organism-based
# Cryptosporidium parvum [29] = assay: Anti-cryptosporidial activity against Cryptosporidium parvum infected in HCT-8 cells assessed as rate of parasite elimination at 6 times of EC90 concentration pre-infected for 24 hrs followed by compound treatment measured after 98 hrs; format: functional
# [30] = Oral bioavailability in CD1 mouse jejunum at 10 mg/kg measured upto 24 hrs by LC-MS/MS anlaysis; format: ADME, organism-based; conditions: in vivo
# [31] = Volume of distribution in CD1 mouse plasma at 1 mg/kg, iv measured upto 6 hrs by LC-MS/MS anlaysis; format: ADME, organism-based; conditions: in vivo
# Cryptosporidium hominis = assay: Anti-cryptosporidial activity against Cryptosporidium hominis infected in HCT-8 cells pre-infected for 3 hrs followed by compound treatment and measured after 45 hrs by fluorescence microscopy analysis; format: functional, organism-based
# T1 sequence (Q12809 whole entry): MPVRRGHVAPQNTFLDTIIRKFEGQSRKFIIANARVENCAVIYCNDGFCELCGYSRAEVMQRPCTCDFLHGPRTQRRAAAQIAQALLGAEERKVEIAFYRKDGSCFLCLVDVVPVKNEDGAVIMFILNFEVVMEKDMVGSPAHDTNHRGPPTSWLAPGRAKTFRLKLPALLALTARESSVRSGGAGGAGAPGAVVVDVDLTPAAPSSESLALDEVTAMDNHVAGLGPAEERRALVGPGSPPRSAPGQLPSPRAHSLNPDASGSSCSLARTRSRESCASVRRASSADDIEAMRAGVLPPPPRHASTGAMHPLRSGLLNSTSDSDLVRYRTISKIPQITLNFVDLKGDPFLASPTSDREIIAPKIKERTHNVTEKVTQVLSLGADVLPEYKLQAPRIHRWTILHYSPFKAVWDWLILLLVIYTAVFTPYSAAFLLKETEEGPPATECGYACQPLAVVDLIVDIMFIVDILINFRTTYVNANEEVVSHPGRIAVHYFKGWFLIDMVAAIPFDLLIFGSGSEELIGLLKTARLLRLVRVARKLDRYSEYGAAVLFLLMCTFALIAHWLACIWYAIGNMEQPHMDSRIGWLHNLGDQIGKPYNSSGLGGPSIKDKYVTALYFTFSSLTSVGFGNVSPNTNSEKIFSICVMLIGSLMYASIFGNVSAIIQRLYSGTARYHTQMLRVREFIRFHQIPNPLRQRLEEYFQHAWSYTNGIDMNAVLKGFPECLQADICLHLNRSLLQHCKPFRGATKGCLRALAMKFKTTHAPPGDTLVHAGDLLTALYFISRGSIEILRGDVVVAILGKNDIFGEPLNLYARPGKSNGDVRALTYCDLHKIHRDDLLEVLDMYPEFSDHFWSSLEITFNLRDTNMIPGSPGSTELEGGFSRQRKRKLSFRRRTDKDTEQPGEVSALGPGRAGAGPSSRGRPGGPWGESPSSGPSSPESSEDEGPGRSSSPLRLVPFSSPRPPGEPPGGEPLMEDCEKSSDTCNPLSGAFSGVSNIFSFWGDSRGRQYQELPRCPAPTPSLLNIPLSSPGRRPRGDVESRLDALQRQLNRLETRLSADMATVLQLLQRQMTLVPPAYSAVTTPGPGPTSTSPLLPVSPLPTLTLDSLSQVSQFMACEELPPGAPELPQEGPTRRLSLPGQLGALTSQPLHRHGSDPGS
# CYP2C19, sequence (P33261 whole entry): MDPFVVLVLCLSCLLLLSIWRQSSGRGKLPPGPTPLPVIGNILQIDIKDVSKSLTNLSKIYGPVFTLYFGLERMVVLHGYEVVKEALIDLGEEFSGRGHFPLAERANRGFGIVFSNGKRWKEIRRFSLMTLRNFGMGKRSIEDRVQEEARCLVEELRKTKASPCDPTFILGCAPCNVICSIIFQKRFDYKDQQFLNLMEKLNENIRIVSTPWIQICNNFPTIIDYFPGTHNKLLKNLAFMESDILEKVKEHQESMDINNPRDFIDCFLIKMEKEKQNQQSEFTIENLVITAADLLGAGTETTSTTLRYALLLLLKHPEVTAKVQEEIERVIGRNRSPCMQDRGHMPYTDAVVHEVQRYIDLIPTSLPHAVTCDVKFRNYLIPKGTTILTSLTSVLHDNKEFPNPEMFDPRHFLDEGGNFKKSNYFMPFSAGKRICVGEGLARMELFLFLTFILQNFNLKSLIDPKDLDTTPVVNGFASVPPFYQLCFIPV
# Voltage-gated inwardly rectifying potassium channel KCNH2, sequence (Q12809 whole entry): as the sequence (Q12809 whole entry) above
# CYP2C9, sequence (P11712 whole entry): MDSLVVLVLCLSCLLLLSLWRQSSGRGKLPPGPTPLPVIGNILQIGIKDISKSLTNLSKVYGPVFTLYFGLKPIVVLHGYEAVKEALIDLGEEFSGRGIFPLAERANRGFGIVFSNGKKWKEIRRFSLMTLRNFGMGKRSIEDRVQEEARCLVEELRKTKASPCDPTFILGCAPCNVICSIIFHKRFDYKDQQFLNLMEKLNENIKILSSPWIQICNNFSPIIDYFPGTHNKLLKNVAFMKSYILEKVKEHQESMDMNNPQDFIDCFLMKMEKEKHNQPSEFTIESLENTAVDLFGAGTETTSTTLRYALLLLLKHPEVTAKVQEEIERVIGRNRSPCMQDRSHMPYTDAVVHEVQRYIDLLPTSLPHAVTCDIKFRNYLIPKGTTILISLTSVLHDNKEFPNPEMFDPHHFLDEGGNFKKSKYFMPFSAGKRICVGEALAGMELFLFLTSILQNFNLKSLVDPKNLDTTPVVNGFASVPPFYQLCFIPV
structure (smiles),measurement,setting,value
O=C(Cc1ccc(Cl)c(Cl)c1)NC1CCN(c2ccc3nncn3n2)CC1,EC50,Cryptosporidium parvum [1],> 25 µM
CC(=O)Oc1ccccc1C(=O)Nc1ncc([N+](=O)[O-])s1 [NITAZOXANIDE],EC50,Cryptosporidium parvum [1],2 µM
same,Activity,Cryptosporidium parvum [2],Active
O=C(c1ccc(Cl)c(Cl)c1)N1CCN(c2ccc3nncn3n2)CC1,EC50,Cryptosporidium parvum [1],> 25 µM
O=C(NC1CCN(c2ccc3nncn3n2)CC1)c1ccc(Cl)c(Cl)c1,EC50,Cryptosporidium parvum [1],12 µM
O=C(Nc1ccc(Cl)c(Cl)c1)N1CC=C(c2ccc3nncn3n2)CC1,EC50,Cryptosporidium parvum [1],0.61 µM
same,inhibition at 10 µM,hERG (KCNH2) [3],56%
same,"efflux ratio at 2 h, 10 µM",MDR1 (P-gp),6.5
same,solubility kinetic,[4],59 µM
same,half-life at 2 µM,[5]; liver microsomes,> 30 min
COc1cccc(CC(=O)N2CCN(c3ccc4nncn4n3)CC2)c1,EC50,Cryptosporidium parvum [1],18 µM
N#Cc1ccc(CC(=O)N2CCN(c3ccc4nncn4n3)CC2)cc1,EC50,Cryptosporidium parvum [1],11 µM
O=C(Cc1ccc(Cl)c(Cl)c1)N1CCCN(c2ccc3nncn3n2)CC1,EC50,Cryptosporidium parvum [1],12 µM
CC1CN(c2ccc3nncn3n2)CCN1C(=O)Nc1ccc(Cl)c(Cl)c1 (stereo not drawn),EC50,Cryptosporidium parvum [1],32 µM
O=C(Cc1ccc2ccccc2c1)N1CCN(c2ccc3nncn3n2)CC1,EC50,Cryptosporidium parvum [1],14 µM
O=C(N1CCN(c2ccc3nncn3n2)CC1)C(F)(F)c1ccc(Cl)c(Cl)c1,EC50,Cryptosporidium parvum [1],2.3 µM
O=C(Cc1ccccc1)N1CCN(c2ccc3nncn3n2)CC1,EC50,Cryptosporidium parvum [1],22 µM
same,inhibition at 10 µM,hERG (KCNH2) [3],4%
O=C(Cc1ccc(F)cc1)N1CCN(c2ccc3nncn3n2)CC1,EC50,Cryptosporidium parvum [1],0.86 µM
COc1ccc(CC(=O)N2CCN(c3ccc4nncn4n3)CC2)cc1,EC50,Cryptosporidium parvum [1],17 µM
O=C(Cc1ccc(Cl)c(Cl)c1)N1CCC(Nc2ccc3nncn3n2)CC1,EC50,Cryptosporidium parvum [1],> 25 µM
O=C(Nc1ccc(Cl)c(Cl)c1)N1CCCN(c2ccc3nncn3n2)CC1,EC50,Cryptosporidium parvum [1],> 25 µM
CN(C(=O)N1CCN(c2ccc3nncn3n2)CC1)c1ccc(Cl)c(Cl)c1,EC50,Cryptosporidium parvum [1],29 µM
O=C(C(=O)N1CCN(c2ccc3nncn3n2)CC1)c1ccc(Cl)c(Cl)c1,EC50,Cryptosporidium parvum [1],2.2 µM
O=C(Cc1cccc2ccccc12)N1CCN(c2ccc3nncn3n2)CC1,EC50,Cryptosporidium parvum [1],17.1 µM
O=C(N1CCN(c2ccc3nncn3n2)CC1)C1(c2ccc(Cl)c(Cl)c2)CC1,EC50,Cryptosporidium parvum [1],8.5 µM
O=S(=O)(Cc1ccc(Cl)c(Cl)c1)N1CCN(c2ccc3nncn3n2)CC1,EC50,Cryptosporidium parvum [1],> 25 µM
O=C(Cc1ccc(Cl)c(Cl)c1)N1CC=C(c2ccc3nncn3n2)CC1,EC50,Cryptosporidium parvum [1],16 µM
same,inhibition at 10 µM,hERG (KCNH2) [3],9%
O=C(Cc1ccc(Cl)c(Cl)c1)N1CCC(c2ccc3nncn3n2)CC1,EC50,Cryptosporidium parvum [1],11 µM
same,Ratio,[6],9.8
same,t1/2,[5],7.8 min
O=C(Cc1cccc(Cl)c1)N1CCN(c2ccc3nncn3n2)CC1,EC50,Cryptosporidium parvum [1],3.5 µM
O=C(Cc1ccc(Cl)c(Cl)c1)N1CCN(c2ccc3nncn3n2)CC1,AUC,[7],5200 ng·h/mL
same,Cmax,[8],15000 ng/mL
same,Cmax,[9],1500 ng/mL
same,EC50,[10],7.7 µM
same,CC50,HCT-8,> 100 µM
same,inhibition at 10 µM,hERG (KCNH2) [3],11%
same,Cmax,[11],36000 ng/mL
same,t1/2,[12],324 min
same,Emax,hERG (KCNH2) [13],79%
same,AUC,[14],240000 ng·h/mL
same,inhibition at 10 µM,CYP2C19,44%
same,Activity,Cryptosporidium parvum [15],>99%
same,AUC,[16],55000 ng·h/mL
same,inhibition at 10 µM,hERG (KCNH2) [17],67%
same,Vd,[18],0.13 L/kg
same,Cmax,[19],17000 ng/mL
same,inhibition at 100 µM,hERG (KCNH2) [20],94%
same,PPB,[21],92.4%
same,solubility kinetic,[4],18 µM
same,inhibition at 1 µM,hERG (KCNH2) [22],19%
same,t1/2,[23],132 min
same,AUC,[24],50000 ng·h/mL
same,PPB,[25],97.8%
same,Activity,Cryptosporidium parvum [26],Active
same,t1/2,[27],> 30 min
same,inhibition at 10 µM,CYP2C9,31%
same,t1/2,[5],> 30 min
same,Activity,Cryptosporidium parvum [28],Active
same,Activity,Cryptosporidium parvum [29],99.9%
same,F,[30],1%
same,Vd,[31],0.062 L/kg
O=C(Cc1ccc(Cl)cc1)N1CCN(c2ccc3nncn3n2)CC1,EC50,Cryptosporidium parvum [1],0.66 µM
same,inhibition at 10 µM,hERG (KCNH2) [3],2%
same,Ratio,[6],3
same,solubility kinetic,[4],10 µM
same,t1/2,[27],> 30 min
same,t1/2,[5],> 30 min
CC1CN(c2ccc3nncn3n2)CCN1C(=O)Cc1ccc(Cl)c(Cl)c1 (stereo not drawn),EC50,Cryptosporidium parvum [1],7.1 µM
O=C(Cc1ccc([N+](=O)[O-])cc1)N1CCN(c2ccc3nncn3n2)CC1,EC50,Cryptosporidium parvum [1],2.5 µM
O=C(Nc1ccc(Cl)c(Cl)c1)N1CCC(c2ccc3nncn3n2)CC1,EC50,Cryptosporidium parvum [1],7 µM
same,Ratio,[6],6.6
same,t1/2,[5],> 30 min
O=C(Nc1ccc(Cl)c(Cl)c1)N1CCN(c2ccc3nncn3n2)CC1,EC50,Cryptosporidium parvum [1],0.55 µM
same,CC50,HCT-8,> 100 µM
same,inhibition at 10 µM,hERG (KCNH2) [3],56%
same,Ratio,[6],12
same,inhibition at 10 µM,hERG (KCNH2) [17],87%
same,inhibition at 100 µM,hERG (KCNH2) [20],94%
same,solubility kinetic,[4],1.8 µM
same,inhibition at 1 µM,hERG (KCNH2) [22],41%
same,t1/2,[27],> 30 min
same,t1/2,[5],> 30 min
same,Activity,Cryptosporidium parvum [28],Active
same,EC50,Cryptosporidium hominis,0.56 µM
O=C(Nc1ccc(Cl)cc1)N1CCN(c2ccc3nncn3n2)CC1,EC50,Cryptosporidium parvum [1],2.1 µM
same,CC50,HCT-8,> 100 µM
same,inhibition at 10 µM,hERG (KCNH2) [3],8%
same,Ratio,[6],8.9
same,inhibition at 10 µM,hERG (KCNH2) [17],48%
same,inhibition at 100 µM,hERG (KCNH2) [20],88%
same,solubility kinetic,[4],200 µM
same,inhibition at 1 µM,hERG (KCNH2) [22],12%
same,t1/2,[27],> 30 min
same,t1/2,[5],> 30 min
same,EC50,Cryptosporidium hominis,6 µM

# From ChEMBL document CHEMBL4808226, “Optimization of the Urea Linker of Triazolopyridazine MMV665917 Results in a New Anticryptosporidial Lead with Improved Potency and Predicted hERG Safety Margin” (J Med Chem, 2021)
